Patent US11040029B2, “Methods for the administration of certain VMAT2 inhibitors” (Neurocrine Biosciences, Inc., priority 2017, dated 2021)
“Also recorded” adds a separate entry of the source. Where two headings read alike, the source gives them in different places.

How the values were obtained:
[1] = Metabolic stability in human liver microsomes with/without quinidine; settings: both, human, microsomes, pH 7.4
Procedure: (§1) Incubation volumes were 250 μL for liver microsomes and 100 μL for hepatocytes. The liver microsomal incubation mixtures contained potassium phosphate buffer (50 mM, pH 7.4) with an NADPH-generating system which consisted of NADP (1 mM), glucose-6-phosphate (5 mM), MgCl2 (3 mM), EDTA (1 mM) and glucose-6-phosphate dehydrogenase (1 Unit/mL) at the final concentrations indicated. The hepatocyte incubation was in KHB buffer. Cryopreserved human hepatocytes were thawed according to the supplier's instruction, and pooled from three female donors. […] Aliquots of supernatant fractions were analyzed by an LC/MS/MS method using an Acquity UPLC liquid chromatography system with an Acquity BEH C18, 1.7 μm (2.1×100 mm) column and the MassLynx 4.1 with QuanLynx data acquisition and processing software, each available from Waters Corp., Milford, Mass.
(§2) Dextromethorphan was used as a positive control. Briefly, the concentration-time data were fitted by nonlinear regression with the following equation: Ct/C0=e^−kt where Ct is the substrate concentration at time t and C0 is the initial concentration (1 μM) at time 0. In the calculations, the area ratio of the substrate peak to an internal standard peak is proportional to the analyte concentration and used for regression analysis to get the value of k. Then the in vivo intrinsic clearance (CLint) can be predicted using the equations below with an assumption that C0 is much lower than Km, a constant that is equal to the substrate concentration at which an enzyme reaction proceeds at half the maximum velocity.

CYP2D6 [2] = assay: as above
Procedure: as §1, §2

[3] = Metabolic stability in cryopreserved human hepatocytes with/without quinidine; settings: female, human, hepatocytes
Procedure: as §1, §2

CYP2D6 [4] = assay: as above
Procedure: as §1, §2

[5] = tested on: more than 80 targets (GPCRs, cell-surface monoamine transporters, ion channels including HERG); assay: Cerep multi-target activity screen; type: binding; settings: broad panel screen
human VMAT1 transporter = molecular target: T1, human VMAT1 transporter (Homo sapiens, UniProt P54219); assay: Uptake in cells expressing VMAT1; type: cell-based; settings: concentrations up to 10 μM
T1 construct: expressed in transfected cells
T1 sequence (P54219 1-525): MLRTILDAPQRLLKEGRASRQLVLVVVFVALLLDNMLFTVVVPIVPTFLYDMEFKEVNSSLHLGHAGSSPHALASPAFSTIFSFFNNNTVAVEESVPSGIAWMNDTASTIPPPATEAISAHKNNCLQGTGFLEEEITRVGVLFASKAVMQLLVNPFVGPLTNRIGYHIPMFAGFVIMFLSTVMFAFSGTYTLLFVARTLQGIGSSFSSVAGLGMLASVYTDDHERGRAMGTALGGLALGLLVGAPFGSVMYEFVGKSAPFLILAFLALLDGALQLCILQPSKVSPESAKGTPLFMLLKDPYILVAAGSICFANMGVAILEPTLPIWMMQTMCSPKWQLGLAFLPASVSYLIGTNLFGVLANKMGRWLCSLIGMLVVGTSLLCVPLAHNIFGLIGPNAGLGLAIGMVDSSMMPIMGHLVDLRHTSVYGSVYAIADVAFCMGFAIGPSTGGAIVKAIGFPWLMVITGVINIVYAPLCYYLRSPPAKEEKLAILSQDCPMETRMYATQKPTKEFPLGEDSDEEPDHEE

[6] = Plasma concentrations of circulating metabolites of VBZ; type: in vivo; settings: after VBZ
[7] = Healthy volunteer studies, coadministration of NBI-98854 with strong CYP2D6 inhibitors; type: in vivo, human; settings: NBI-98854 coadministered with strong CYP2D6 inhibitors; preliminary data
[8] = Phase 3 clinical trial in tardive dyskinesia, plasma concentrations; type: in vivo, human; settings: valbenazine 40 or 80 mg once daily, Weeks 2, 4, 6
Procedure: A Phase 3 clinical trial for patients with tardive dyskinesia (TD) and a psychiatric diagnosis (i.e., schizophrenia/schizoaffective disorder, mood disorder) who received once-daily valbenazine 40 or 80 mg for 6 weeks was also conducted.
Plasma samples for determination of plasma valbenazine and [+]-α-HTBZ concentrations were obtained at Weeks 2, 4, and 6. Plasma valbenazine and [+]-α-HTBZ concentrations were determined using validated HPLC-MS/MS methods. PK parameters were determined using standard non-compartmental methods. Dose-normalized plasma concentrations of valbenazine and [+]-α-HTBZ at Weeks 2, 4, and 6 in the subgroup of patients prescribed concomitant potent CYP2D6 inhibitors (paroxetine, fluoxetine, duloxetine, sertraline, or bupropion) were compared by t-test to respective concentrations in patients not receiving a CYP2D6 inhibitor.

CYP2D6 [9] = settings: both, human, microsomes, 1 μM, pH 7.4
Procedure: as §1, §2

CYP2D6 [10] = settings: female, human, hepatocytes, 1 μM
Procedure: as §1, §2

[11] = tested on: CYP2D6, CYP1A1, CYP1A2, CYP1B1, CYP3A4 and CYP3A5; settings: 1 μM, pH 7.4
in vitro [12] = settings: both, human, microsomes, pH 7.4
Procedure: as §1, §2

CYP2D6 [13] = assay: in vitro; settings: both, human, microsomes, pH 7.4
Procedure: as §1, §2

in vitro [14] = settings: female, human, hepatocytes
Procedure: as §1, §2

CYP2D6 [15] = assay: in vitro; settings: female, human, hepatocytes
Procedure: as §1, §2

[16] = tested on: dopamine, serotonin and adrenergic receptor subtypes; assay: Detailed radioligand binding assays, monoamine receptors; settings: for interaction with D1 and D2 receptors: radioligand binding assays and broad panel screen
[17] = Prolactin release, in vivo surrogate measure
[18] = in vivo; cited from earlier work
[19] = with concomitant CYP2D6 inhibitors
[20] = without concomitant CYP2D6 inhibitors

Molecule: COc1ccc2c(c1)[C@]13CCCC[C@@H]1[C@H](C2)N(C)CC3 [Dextromethorphan]
- CLint scaled at 1 μM [1]: 50 mL/min/kg
- CLint scaled at 1 μM (CYP2D6 [2]; both, human, microsomes, pH 7.4): 8 mL/min/kg
- % Contribution by CYP2D6 (CYP2D6 [2]; human liver microsomes): 84.0%
- inhibition of intrinsic clearance in the presence of quinidine (CYP2D6 [2]; quinidine 3 μM, text summary for microsomes and hepatocytes): more than 80%
- CLint scaled at 1 μM [3]: 22.6 mL/min/kg
- CLint scaled at 1 μM (CYP2D6 [4]; female, human, hepatocytes): 3.23 mL/min/kg
- % Contribution by CYP2D6 (CYP2D6 [4]; human hepatocytes): 85.8%

Molecule: COc1cc2c(cc1OC)[C@H]1C[C@@H](OC(=O)[C@@H](N)C(C)(C)O)[C@H](CC(C)C)CN1CC2 [NBI-136110]
- affinity for more than 80 binding sites [5]: little to no affinity
- inhibition of uptake through VMAT1 (human VMAT1 transporter): no significant inhibitory activity; also recorded: no significant effect
- decline of plasma concentrations, half-life [6]: half-lives similar to VBZ

Molecule: COc1cc2c(cc1OC)[C@H]1C[C@@H](O)[C@H](CC(C)C)CN1CC2 [R,R,R-DHTBZ, (2R,3R,11bR)-3-isobutyl-9,10-dimethoxy-1,3,4,6,7,11b-hexahydro-2H-pyrido[2,1-a]isoquinolin-2-ol]
- increase of area under the plasma concentration versus time curve (AUC) [7]: approximately 2 fold
- increase of maximum plasma concentration (Cmax) [7]: approximately 2 fold
- Mean (±SD) dose-normalized plasma concentration [8, 19]: 0.534 ± 0.321 ng/mL/mg
- Mean (±SD) dose-normalized plasma concentration [8, 20]: 0.513 ± 0.326 ng/mL/mg
- affinity for more than 80 binding sites [5]: little to no affinity
- inhibition of uptake through VMAT1 (human VMAT1 transporter): no significant inhibitory activity; also recorded: no significant effect
- decline of plasma concentrations, half-life [6]: half-lives similar to VBZ
- % Contribution by CYP2D6 (CYP2D6 [9]): 62.6%
- % Contribution by CYP2D6 (CYP2D6 [10]): 54.3%
- enzymes catalyzing oxidative metabolism in human liver [11]: in part catalyzed by CYP2D6, with some contribution from CYP1A1, CYP1A2, CYP1B1, CYP3A4 and CYP3A5
- CLint scaled at 1 μM (in vitro [12]): 10.4 mL/min/kg
- CLint scaled at 1 μM (CYP2D6 [13]): 3.9 mL/min/kg
- CLint scaled at 1 μM (in vitro [14]): 8.8 mL/min/kg
- CLint scaled at 1 μM (CYP2D6 [15]): 4 mL/min/kg
- specificity for VMAT2 versus monoamine receptor subtypes [16]: high specificity

Molecule: COc1cc2c(cc1OC)[C@@H]1C[C@@H](O)[C@@H](CC(C)C)CN1CC2 [R,S,S-DHTBZ]
- interaction with D1 and D2 receptors [16]: interact with D1 and D2 receptors

Molecule: COc1cc2c(cc1OC)[C@@H]1C[C@H](O)[C@@H](CC(C)C)CN1CC2 [S,S,S-DHTBZ]
- interaction with D1 and D2 receptors [16]: interact with D1 and D2 receptors

Molecule: COc1cc2c(cc1OC)C1CC(=O)C(CC(C)C)CN1CC2 (stereo not drawn) [TBZ, tetrabenazine, reference compound]
- inhibition of uptake through VMAT1 (human VMAT1 transporter): no significant inhibitory activity; also recorded: no significant effect
- increase in serum prolactin levels [17]: increase in serum prolactin levels

Molecule: COc1cc2c(cc1OC)[C@H]1C[C@@H](OC(=O)[C@@H](N)C(C)C)[C@H](CC(C)C)CN1CC2 [Valbenazine, (S)-2-amino-3-methyl-butyric acid (2R,3R,11bR)-3-isobutyl-9,10-dimethoxy-1,3,4,6,7,11b-hexahydro-2H-pyrido[2,1-a]isoquinolin-2-yl ester]
- Mean (±SD) dose-normalized plasma concentration [8, 19]: 3.375 ± 2.037 ng/mL/mg
- Mean (±SD) dose-normalized plasma concentration [8, 20]: 3.683 ± 2.360 ng/mL/mg
- affinity for more than 80 binding sites [5]: little to no affinity
- inhibition of uptake through VMAT1 (human VMAT1 transporter; listed as VBZ): no significant inhibitory activity; also recorded: no significant effect

Molecule: COC(=O)[C@H]1[C@H]2C[C@@H]3c4[nH]c5cc(OC)ccc5c4CCN3C[C@H]2C[C@@H](OC(=O)c2cc(OC)c(OC)c(OC)c2)[C@@H]1OC [reserpine, reference compound]
- inhibition of uptake through VMAT1 (human VMAT1 transporter): substantially inhibited uptake through VMAT1

Molecule: α-dihydrotetrabenazine
- increase of AUC [18]: ~3 fold
- increase of Cmax [18]: approximately 30%
